In one assay the target is T1, B-Raf kinase (Homo sapiens, UniProt P15056).
T1 construct: GST (N); purchased Sigma
Put plainly: Biochemical assay for B-Raf.2 (coupled pyruvate kinase/lactate dehydrogenase). The note with it: read-out: BRAF.2 IC50. As for the experimental part:
Biochemical Assay for B-Raf.2
Activity of B-Raf kinase (SEQ. ID NO: 2) was determined spectroscopically using a coupled pyruvate kinase/lactate dehydrogenase assay that continuously monitors the ATP hydrolysis-dependent oxidation of NADH (e.g., Schindler et al., Science, 2000, 289, 1938-1942). Assays were conducted in 384-well plates (25 μL final volume) using 2 nM B-Raf (Sigma), 1.5 units pyruvate kinase, 2.1 units lactate dehydrogenase, 1 mM phosphoenol pyruvate, 0.7 mM NADH, 50 nM MEK (SignalChem), and 1 mM ATP in assay buffer (100 mM Tris, pH 7.5, 15 mM MgCl2, 0.5 mM DTT, 0.1% octyl-glucoside, 0.002% (w/v) BSA, and 0.002% Triton X-100). Inhibition of B-Raf was measured by adding serial diluted test compound (final assay concentration of 1% DMSO). A decrease in absorption at 340 nm was monitored hourly for 4 h at 30° C. on a multi-mode microplate reader (BioTek). The reaction rate was calculated using the 2 to 3 h time frame. The reaction rate at each concentration of compound was converted to percent inhibition using controls (i.e., reaction with no test compound and reaction with a known inhibitor) and IC50 values were calculated by fitting a four-parameter sigmoidal curve to the data using Prism (GraphPad software).

Assay [1] has as its target T2, B-Raf (V600E) kinase (Homo sapiens, UniProt P15056, V600E).
T2 construct: B-Raf (V600E) residues 416-766 with a; GST (N); purchased SignalChem
Put plainly: Biochemical assay for B-Raf (V600E).2 (coupled pyruvate kinase/lactate dehydrogenase). The following applies: read-out: BRAF V600E.2 IC50. Here is the method: Biochemical Assay for B-Raf (V600E).2
Activity of B-Raf (V600E) (SEQ. ID NO: 4) kinase was determined spectroscopically using a coupled pyruvate kinase/lactate dehydrogenase assay that continuously monitors the ATP hydrolysis-dependent oxidation of NADH (e.g., Schindler et al., Science, 2000, 289, 1938-1942). Assays were conducted in 384-well plates (25 μL final volume) using 0.5 nM B-Raf (deCode), 1.5 units pyruvate kinase, 2.1 units lactate dehydrogenase, 1 mM phosphoenol pyruvate, 0.7 mM NADH, 100 nM MEK (SignalChem), and 1 mM ATP in assay buffer (100 mM Tris, pH 7.5, 15 mM MgCl2, 0.5 mM DTT, 0.1% octyl-glucoside, 0.002% (w/v) BSA, and 0.002% Triton X-100). Inhibition of B-Raf (V600E) was measured by adding serial diluted test compound (final assay concentration of 1% DMSO). A decrease in absorption at 340 nm was monitored hourly for 4 h at 30° C. on a multi-mode microplate reader (BioTek). The reaction rate was calculated using the 3 to 4 h time frame. The reaction rate at each concentration of compound was converted to percent inhibition using controls (i.e., reaction with no test compound and reaction with a known inhibitor) and IC50 values were calculated by fitting a four-parameter sigmoidal curve to the data using Prism (GraphPad software).

The target in the next assay is T3, A-Raf kinase (Homo sapiens, UniProt P10398, Y301D/Y302D).
T3 construct: purchased Sigma
Put plainly: Biochemical assay for A-Raf.2 (coupled pyruvate kinase/lactate dehydrogenase). The note with it: read-out: ARAF.2 IC50. As for the experimental part:
Biochemical Assay for A-Raf.2
Activity of A-Raf kinase (SEQ. ID No: 1) was determined spectroscopically using a coupled pyruvate kinase/lactate dehydrogenase assay that continuously monitors the ATP hydrolysis-dependent oxidation of NADH (e.g., Schindler et al., Science, 2000, 289, 1938-1942). Assays were conducted in 384-well plates (25 μL final volume) using 20 nM A-Raf (Eurofins), 1.5 units pyruvate kinase, 2.1 units lactate dehydrogenase, 1 mM phosphoenol pyruvate, 0.7 mM NADH, 100 nM MEK (SignalChem), and 1 mM ATP in assay buffer (100 mM Tris, pH 7.5, 15 mM MgCl2, 0.5 mM DTT, 0.1% octyl-glucoside, 0.002% (w/v) BSA, and 0.002% Triton X-100). Inhibition of A-Raf was measured by adding serial diluted test compound (final assay concentration of 1% DMSO). A decrease in absorption at 340 nm was monitored hourly for 4 h at 30° C. on a multi-mode microplate reader (BioTek). The reaction rate was calculated using the 3 to 4 h time frame. The reaction rate at each concentration of compound was converted to percent inhibition using controls (i.e., reaction with no test compound and reaction with a known inhibitor) and IC50 values were calculated by fitting a four-parameter sigmoidal curve to the data using Prism (GraphPad software).

Assay [2] deals with T2, B-Raf (V600E) kinase. Kind of assay: Biochemical assay for B-Raf (V600E).1 (coupled pyruvate kinase/lactate dehydrogenase). The note with it: read-out: BRAF V600E.1 IC50. In outline: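 IC50 came from four-parameter sigmoidal fits of percent inhibition, using reaction rates over 3-4 h. Continuous A340 reading (6 h, 30 °C) of a pyruvate kinase/lactate dehydrogenase-coupled reaction: B-Raf V600E 0.03 nM, MEK 30.1 nM, ATP 1 mM, Tris pH 7.5, 1% DMSO.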

Some results are limits rather than exact numbers.

T2 sequence (P15056 416-766 V600E): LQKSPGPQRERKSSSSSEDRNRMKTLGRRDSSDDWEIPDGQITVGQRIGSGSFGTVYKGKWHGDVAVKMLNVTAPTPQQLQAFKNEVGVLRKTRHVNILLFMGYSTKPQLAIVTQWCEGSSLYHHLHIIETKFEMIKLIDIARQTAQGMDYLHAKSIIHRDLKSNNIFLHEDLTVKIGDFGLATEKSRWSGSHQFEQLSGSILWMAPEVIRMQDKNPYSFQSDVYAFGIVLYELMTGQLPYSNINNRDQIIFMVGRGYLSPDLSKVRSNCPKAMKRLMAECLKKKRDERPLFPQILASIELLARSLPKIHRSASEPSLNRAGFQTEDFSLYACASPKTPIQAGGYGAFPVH
T3 sequence (P10398 with tags, fused parts or gaps Y301D/Y302D): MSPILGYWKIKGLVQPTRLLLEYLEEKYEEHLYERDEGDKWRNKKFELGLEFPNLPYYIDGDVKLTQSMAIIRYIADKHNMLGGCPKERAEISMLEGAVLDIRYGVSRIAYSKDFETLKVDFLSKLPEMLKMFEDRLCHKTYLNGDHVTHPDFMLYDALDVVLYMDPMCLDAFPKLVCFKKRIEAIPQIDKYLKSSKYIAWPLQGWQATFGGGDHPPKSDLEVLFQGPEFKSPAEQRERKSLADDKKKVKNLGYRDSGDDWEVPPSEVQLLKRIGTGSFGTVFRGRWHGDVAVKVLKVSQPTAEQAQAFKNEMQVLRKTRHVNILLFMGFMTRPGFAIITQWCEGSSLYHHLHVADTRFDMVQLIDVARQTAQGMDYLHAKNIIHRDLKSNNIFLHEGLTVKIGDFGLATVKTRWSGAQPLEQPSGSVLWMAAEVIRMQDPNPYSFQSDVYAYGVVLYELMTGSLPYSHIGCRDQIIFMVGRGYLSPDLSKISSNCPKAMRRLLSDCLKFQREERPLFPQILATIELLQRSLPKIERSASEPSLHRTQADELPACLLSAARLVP
T1 sequence (P15056 416-766): as the sequence (P15056 416-766 V600E) above, with E185V counted along it

For orientation: IC50 means the concentration at which inhibition is half-maximal. On to `CNC(=O)c1cc(-c2cc(-c3cc(NC(=O)N4CC[C@H](C(F)(F)F)C4)ccc3C)ccn2)ccn1` [Example 215], for which the IC50 on B-Raf kinase was 100 to 500 nM; at B-Raf (V600E) kinase [1], 100 to 500 nM; on A-Raf kinase, more than 1000 nM.

With `Cc1cc(F)c(NC(=O)N2CCC(C)(C#N)CC2)cc1-c1cc(OCCO)nc(-c2ccnc3[nH]ncc23)c1` [Example 92], at B-Raf (V600E) kinase [2], the IC50 is not above 100 nM.

With `Cc1cc(F)c(NC(=O)NCCC2(C)CC2)cc1-c1cc(OCCO)nc(-c2ccnc3[nH]ncc23)c1` [Example 87], at B-Raf (V600E) kinase [2], the half-maximal inhibitory concentration (IC50) was not above 100 nM.

With `COC(=O)Nc1cc(-c2cncc(-c3cc(NC(=O)N4CC[C@H](C(F)(F)F)C4)ccc3C)c2)ncn1` [Example 224], the half-maximal inhibitory concentration (IC50) at B-Raf kinase is not above 100 nM; on B-Raf (V600E) kinase [1], not above 100 nM; at A-Raf kinase it was 100 to 500 nM.

As for `Cc1cc(F)c(NC(=O)NCC[C@@H]2CCO2)cc1-c1cc(OCCO)nc(-c2ccnc3[nH]ncc23)c1` [Example 89], on B-Raf (V600E) kinase [2], the IC50 was more than 1000 nM.

In the case of `CNC(=O)c1cc(-c2cncc(-c3cc(NC(=O)N4CC[C@H](C(F)(F)F)C4)ccc3C)c2)ccn1` [Example 228], the IC50 was 100 to 500 nM on B-Raf kinase, not above 100 nM at B-Raf (V600E) kinase [1] and more than 1000 nM at A-Raf kinase.

`CNC(=O)c1cc(-c2cc(-c3cc(NC(=O)N4CC[C@H](C(C)C)C4)ccc3C)ccn2)ccn1` [Example 225]: the IC50 at B-Raf kinase was 100 to 500 nM; at B-Raf (V600E) kinase [1], not above 100 nM; on A-Raf kinase, more than 1000 nM.

As for `CNC(=O)c1cc(-c2cncc(-c3cc(NC(=O)N4CC[C@H](C(F)(F)F)C4)ccc3C)c2)ncn1` [Example 220], the IC50 on B-Raf kinase was 100 to 500 nM; at B-Raf (V600E) kinase [1], 100 to 500 nM; on A-Raf kinase, more than 1000 nM.

Consider `Cc1cc(F)c(NC(=O)N[C@@H]2CC[C@H](F)C2)cc1-c1cc(OCCO)nc(-c2ccnc3[nH]ncc23)c1` [Example 88], for which the half-maximal inhibitory concentration (IC50) on B-Raf (V600E) kinase [2] was not above 100 nM.

For `CNC(=O)c1cc(-c2cncc(-c3cc(NC(=O)N4CC[C@H](C(C)C)C4)ccc3C)c2)ncn1` [Example 226], the IC50 on B-Raf kinase is 500 to 1000 nM; on B-Raf (V600E) kinase [1], not above 100 nM; at A-Raf kinase, more than 1000 nM.

`Cc1ccc(NC(=O)N2CC[C@H](C)C2)cc1-c1cncc(-c2cc(NC(=O)C3CC3)ncn2)c1` [Example 227]: the half-inhibitory concentration (IC50) at B-Raf kinase, at B-Raf (V600E) kinase [1] and on A-Raf kinase was not above 100 nM throughout.

Consider `COC(C)(C)CCNC(=O)Nc1cc(-c2cc(OCCO)nc(-c3ccnc4[nH]ccc34)c2)c(C)cc1F` [Example 90], for which, on B-Raf (V600E) kinase [2], the IC50 is not above 100 nM.

For `CNC(=O)c1cc(-c2cncc(-c3cc(NC(=O)N4CC[C@H](C(C)C)C4)ccc3C)c2)ccn1` [Example 229], the figures for the half-inhibitory concentration (IC50) at B-Raf kinase, at B-Raf (V600E) kinase [1] and at A-Raf kinase were 100 to 500 nM, not above 100 nM and more than 1000 nM, respectively.

As to `COC(=O)Nc1cc(-c2cccc(-c3cc(NC(=O)NCCC(C)(C)OC)c(F)cc3C)c2)ccn1` [Example 85], the IC50 at B-Raf (V600E) kinase [2] was not above 100 nM.

With `COC(C)(C)CCNC(=O)Nc1cc(-c2cc(OCCO)nc(-c3ccnc4[nH]ncc34)c2)c(C)cc1F` [Example 91], the IC50 on B-Raf (V600E) kinase [2] is not above 100 nM.
